From patent publication US5874461A, “Use of Nebivolol as an anti-atherogenic” (priority 1995, dated 1999)
Read-outs that look alike come from different tables or passages of the source.

Assays:
[1] = test system: primary embryonic hippocampal cultures; assay: In vitro neuroprotection against nitric oxide and superoxide radicals (inhibition of LDH release); format: cell-based, rats; conditions: for inhibition at 1 µM / inhibition at 0.1 µM: Rattus norvegicus, read-out: % neuroprotection, mean ± SD; for inhibition at 1 µM: 10^-6 M; for inhibition at 0.1 µM: 10^-7 M; for neuroprotection against DDTC or SNP: one or the other treatment paradigm
Procedure: Primary embryonic hippocampal cultures were prepared essentially as described previously (Pauwels et al., Van Aschouw, H. P., Peeters, L., Moeremans, M., Leysen, J. E. (1992) Chronic treatment with sabeluzole protects cultured rat brain neurons from the neurotoxic effects of excitatory amino acids. Synapse, 12:271-280). Hippocampal formations of rats at embryonic day 17 were dissected and dissociated in 0.05% trypsin, 0.1 mg/ml DNase I in DMEM (Dulbecco Modified Eagle Medium). Heat-inactivated horse serum (HS) was added to a concentration of 4%, and the cells were centrifuged, washed with DMEM, and resuspended in DMEM/Ham's F12 (3:1) containing 10% HS. The cells were plated at a density of 4×10^5 cells/cm^2 in poly L-lysine (0.001%) precoated multiwell-24 plates. On day 1 in culture, the medium was changed to chemically defined CDM-R12 medium (DMEM-HEPES/Ham's F12 (3:1) containing 0.26% bovine serum albumin, 30 nM sodium selenite, 3 nM 3,3',5 triiodo-L-thyronine, 0.35 μM retinol, 0.3 μM retinol acetate, 2.3 μM DL-a-tocopherol, 2.1 μM DL-a-tocopherol acetate, 3.6 μM linolenic acid, 3.6 μM linoleic acid, 0.125% human transferrin, […], 57.7 nM corticosterone, 49 U/I insulin, 0.4 μM biotin, 10 μM L-carnitine, 83 μM D(+)-galactose, 3.3 μM glutathione, 10 μM ethanolamine, 0.1 mM putrescine; Romijn, H. J., van Huizen, F., Wolters, P. S. (1984) Towards an improved serum-free, chemically defined medium for long-term culturing of cerebral cortex tissue. Neurosci. Behav. Rev., 8:301-334). Acute and prolonged pretreatment of the, cultures was essentially as described previously (Pauwels et al., 1992). Drugs were dissolved, and diluted in 10% or 1% hydroxypropyl-β-cyclodextrin such that the final concentrations of the solvent in the acute and chronic exposures were 0.1% and 0.01% respectively. Compound A as used in the following examples is [(RRSR)+(RRRS)+(SSSR) +(SSRS)]-α-[[[2-(chroman-2-yl)-2-hydroxy-ethyl]amino]methyl]-6-hydroxy-2-chromanmethanol ethanedioate (1:1).
For acute treatment, drug, or solvent was added to the cultures on day 7. After 20 min the medium was replaced with 200 μl chemically defined DMEM medium (the same composition of CDM-R12 medium but without Ham's F12) (control), or chemically defined DMEM medium containing the oxidative stress trigger. Oxidative stress triggers used were 1 mM sodium nitroprusside (SNP, a nitric oxide radical generating compound), or 7.5-10 mM diethyldithiocarbamate (DDTC, a superoxide dismutase inhibitor) and the test compound.
For prolonged pretreatment experiments, drug (concentration range 0.1 nM-10 μM) was added to the serum-free medium on days 1 and 4 of the culture. On day 7, the cultures were washed once with DMEM, and incubated with 0.2 ml chemically defined DMEM medium for 2 h at 37° C. The cells were washed and the medium was replaced by 0.2 ml chemically defined DMEM medium (control), or chemically defined DMEM medium containing the oxidative stress trigger (se above).
For both the acute experiment and the prolonged pretreatment experiment, extracellular and intracellular LDH (lactate dehydrogenase) activities were measured spectrophotometrically at 340 nm with an EPOS Analyzer 5060, according to the method of Bergmeyer (Bergmeyer, H. U. (1974) Biochemical reagents. In: Methods of Enzymatic Analysis. H. U. Bergmeyer, eds. Academic Press, New York, 2nd Ed., pp. […]). Extracellular LDH activity in the culture medium and cytoplasmic LDH activity measured after lysis of the cells in 1 ml H2 O, were used to calculate total LDH activity and % released LDH. % Neuroprotection refers to % inhibition of LDH release, where oxidative stress trigger-induced LDH release is defined as 0% protection, and basal (control) level of LDH release is defined as 100% protection.
Neuronal primary hippocampal cultures were grown in CDM-R12 medium for 7 days. Test compounds were either administered on days 1 and 4 of culture (prolonged pretreatment) or on day 7 of culture (acute treament). […]

C6 glioma cells = assay: Protection of C6 glioma cells from glutathione depletion-mediated oxidative stress (toxicity, LDH assay); format: cell-based; conditions: 10 mM glutamate; for IC50: 48 hr, read-out: Protection IC50 (mean ± SD, n = 3)
Excerpt: Competitive inhibition by glutamate of cystine uptake in certain cells leads to glutathione depletion and oxidative stress. This oxidative stress model has been described for glial C6 glioma cells (Kato et al., 1992. A mechanism for glutamate toxicity in the C6 glioma cells involving inhibition of cystine uptake leading to glutathione depletion. Neurosci. 48:903-914) and for the neuronal cell line N18RE105 (Murphy et al., 1989. Glutamate toxicity in a neuronal cell line involves inhibition of cystine transport leading to oxidative stress. Neuron 2:1547-1558).
Cell culture: The C6 glioma cell line (American Type Culture Collection, CCL 107) was cultivated in DMEM supplemented with 2 or 4 mM glutamine, 1 mM pyruvate and 5 or 10% heat-inactivated foetal calf serum. Cultures were maintained at 37° C. in an air/5~10% CO2, water saturated atmosphere.
Glutathione depletion and evaluation of drugs as antioxidants: Experiments were carried out with cultures plated at 30,000~50,000 cells/cm^2 in 24-well culture plates (for toxicity and lipid peroxide measurements) or at 136,000 cells/cm^2 in 96-well culture plates (for GSH determination). After 8-24 hr, the cultures were switched to culture medium in the absence or presence of the cystine uptake inhibitor glutamate at a final concentration of 10 mM. In order to test drugs for inhibition of oxidative stress, the drug was added together with glutamate (final concentration of solvent was 0.01% hydroxypropyl-β-cylodextrin, 0.1% DMSO). Intracellular glutathione levels were measured after 6~8 hr, lipid peroxides were measured after 14~20 hr, and toxicity and protection were analysed after 48 hr using an LDH assay according to the method of Bergmeyer and Bernt (UV-assay with pyruvate and NADH. In: Methods of Enzymatic Analysis. 1974. H. U. Bergmeyer, ed. Acad. Press, New York, 2nd Ed., pp 574-579).

[2] = DDTC trigger, prolonged pretreatment
[3] = SNP trigger, prolonged pretreatment

## O[C@H](CNC[C@@H](O)[C@H]1CCc2cc(F)ccc2O1)[C@@H]1CCc2cc(F)ccc2O1 (relative stereo) [nebivolol, (RSSS) and (SRRR) α,α'-iminobis(methylene)bis[6-fluoro-2-chroman-methanol]]
[1]; DDTC trigger, acute treatment
  inhibition at 1 µM: 29 ± 16%
  inhibition at 0.1 µM: 32 ± 28%
[1]; [2]
  inhibition at 1 µM: 37 ± 23%
  inhibition at 0.1 µM: < 25%
[1]; SNP trigger, acute treatment
  inhibition at 1 µM: < 25%
  inhibition at 0.1 µM: < 25%
[1]; [3]
  inhibition at 1 µM: 36 ± 18%
  inhibition at 0.1 µM: 26 ± 13%
[1]
  neuroprotection against DDTC or SNP: can confer neuroprotection
C6 glioma cells
  protection from cell death: protected these cultures from cell death with high potency
  IC50: 9.1 ± 0.1 nM
C6 glioma cells; C6 glioma, 48 h
  IC50: ~9 nM

## Oc1ccc2c(c1)CCC(C(O)CNCC(O)C1CCc3ccccc3O1)O2 (stereo not drawn) [Compound A, [(RRSR)+(RRRS)+(SSSR) +(SSRS)]-α-[[[2-(chroman-2-yl)-2-hydroxy-ethyl]amino]methyl]-6-hydroxy-2-chromanmethanol ethanedioate (1:1)]
[1]; DDTC trigger, acute treatment
  inhibition at 1 µM: 30 ± 28%
  inhibition at 0.1 µM: 35 ± 32%
[1]; [2]
  inhibition at 1 µM: < 25%
  inhibition at 0.1 µM: < 25%
[1]; SNP trigger, acute treatment
  inhibition at 1 µM: < 25%
  inhibition at 0.1 µM: < 25%
[1]; [3]
  inhibition at 1 µM: 38%
  inhibition at 0.1 µM: 39 ± 13%
[1]
  neuroprotection against DDTC or SNP: can confer neuroprotection
C6 glioma cells
  protection from cell death: protected these cultures from cell death with high potency
  IC50: 8.6 ± 0.2 nM
C6 glioma cells; C6 glioma, 48 h
  IC50: ~9 nM
